From ChEMBL document CHEMBL5634143, “Development of teixobactin analogues containing hydrophobic, non-proteogenic amino acids that are highly potent against multidrug-resistant bacteria and biofilms” (Eur J Med Chem, 2023)
In brackets after ≈: the same amount, converted by molar mass.

Columns and labels:
Format in all cases: functional
[1] = tested on: Staphylococcus saprophyticus; assay: Antibacterial activity against Staphylococcus saprophyticus ATCC BAA 750 assessed as inhibition of bacterial growth
[2] = tested on: Enterococcus faecium; assay: Antibacterial activity against Vancomycin-resistant Enterococcus faecium 1014 assessed as inhibition of bacterial growth
[3] = tested on: Staphylococcus aureus; assay: Antibacterial activity against methicilin-resistant Staphylococcus aureus ATCC 700699 assessed as inhibition of bacterial growth
[4] = tested on: Staphylococcus aureus; assay: Antibacterial activity against Staphylococcus aureus 4299 assessed as inhibition of bacterial growth
[5] = tested on: Enterococcus faecium; assay: Antibacterial activity against Vancomycin-resistant Enterococcus […] ATCC 700802 assessed as inhibition of bacterial growth
[6] = tested on: Staphylococcus aureus; assay: Antibacterial activity against methicilin-resistant Staphylococcus aureus 21455 assessed as inhibition of bacterial growth
[7] = tested on: Staphylococcus epidermidis; assay: Antibacterial activity against Staphylococcus epidermidis 12228 assessed as inhibition of bacterial growth
[8] = tested on: Staphylococcus saprophyticus; assay: Antibacterial activity against Staphylococcus saprophyticus ATCC 49453 assessed as inhibition of bacterial growth
[9] = tested on: Staphylococcus saprophyticus; assay: Antibacterial activity against Staphylococcus saprophyticus ATCC 15305 assessed as inhibition of bacterial growth
[10] = tested on: Bacillus cereus; assay: Antibacterial activity against Bacillus cereus ATCC 11788 assessed as inhibition of bacterial growth
[11] = tested on: Staphylococcus aureus; assay: Antibacterial activity against Staphylococcus aureus 29213 assessed as inhibition of bacterial growth
[12] = tested on: Enterococcus faecium; assay: Antibacterial activity against Vancomycin-resistant Enterococcus […] ATCC 29212 assessed as inhibition of bacterial growth; conditions: Enterococcus faecalis
[13] = tested on: Staphylococcus saprophyticus; assay: Antibacterial activity against Staphylococcus saprophyticus ATCC 49907 assessed as inhibition of bacterial growth
[14] = tested on: Staphylococcus aureus; assay: Antibacterial activity against methicilin-resistant Staphylococcus aureus 42412 assessed as inhibition of bacterial growth
[15] = tested on: Staphylococcus aureus; assay: Antibacterial activity against methicilin-resistant Staphylococcus aureus 1003 assessed as inhibition of bacterial growth
[16] = tested on: Bacillus subtilis; assay: Antibacterial activity against Bacillus subtilis ATCC 6633 assessed as inhibition of bacterial growth

Row | Compound | MIC [1] [µg/mL] | MIC [2] [µg/mL] | MIC [3] [µg/mL] | MIC [4] [µg/mL] | MIC [5] [µg/mL] | MIC [6] [µg/mL] | MIC [7] [µg/mL] | MIC [8] [µg/mL] | MIC [9] [µg/mL] | MIC [10] [µg/mL] | MIC [11] [µg/mL] | MIC [12] [µg/mL] | MIC [13] [µg/mL] | MIC [14] [µg/mL] | MIC [15] [µg/mL] | MIC [16] [µg/mL]
1 | CCC[C@@H]1NC(=O)[C@H](C)NC(=O)[C@H](NC(=O)[C@H](CO)NC(=O)[C@@H](NC(=O)[C@H](NC(=O)[C@@H](CCCNC(=N)N)NC(=O)[C@H](CO)NC(=O)[C@@H](NC(=O)[C@@H](Cc2ccccc2)NC)[C@@H](C)CC)[C@@H](C)CC)[C@@H](C)CC)[C@H](C)OC(=O)[C@H]([C@@H](C)CC)NC1=O | 0.063 (≈ 0.0518 µM) | 1 (≈ 0.823 µM) | 0.063 (≈ 0.0518 µM) | 0.063 (≈ 0.0518 µM) | 0.5 (≈ 0.411 µM) | 0.125 (≈ 0.103 µM) | 0.063 (≈ 0.0518 µM) | 0.063 (≈ 0.0518 µM) | 0.063 (≈ 0.0518 µM) | 0.5 (≈ 0.411 µM) | 0.125 (≈ 0.103 µM) | 1 (≈ 0.823 µM) | 0.063 (≈ 0.0518 µM) | 0.063 (≈ 0.0518 µM) | 0.125 (≈ 0.103 µM) | 0.063 (≈ 0.0518 µM)
2 | CC[C@H](C)[C@H](NC(=O)[C@@H](Cc1ccccc1)NC)C(=O)N[C@@H](CCCNC(=N)N)C(=O)N[C@H](CCC(N)=O)C(=O)N[C@@H](C(=O)N[C@H](C(=O)N[C@@H](CO)C(=O)N[C@H]1C(=O)N[C@@H](C)C(=O)N[C@@H](C2CCCCC2)C(=O)N[C@@H]([C@@H](C)CC)C(=O)O[C@H]1C)[C@@H](C)CC)[C@@H](C)CC | 0.063 (≈ 0.0486 µM) | 0.063 (≈ 0.0486 µM) | 0.063 (≈ 0.0486 µM) | 0.063 (≈ 0.0486 µM) | 0.063 (≈ 0.0486 µM) | 0.125 (≈ 0.0964 µM) | 0.063 (≈ 0.0486 µM) | < 0.063 | < 0.063 | 0.063 (≈ 0.0486 µM) | 0.063 (≈ 0.0486 µM) | 0.125 (≈ 0.0964 µM) | 0.063 (≈ 0.0486 µM) | 0.063 (≈ 0.0486 µM) | 0.063 (≈ 0.0486 µM) | 0.063 (≈ 0.0486 µM)
3 | CC[C@H](C)[C@H](NC(=O)[C@@H](Cc1ccccc1)NC)C(=O)N[C@@H](CO)C(=O)N[C@H](CCC(N)=O)C(=O)N[C@@H](C(=O)N[C@H](C(=O)N[C@@H](CO)C(=O)N[C@H]1C(=O)N[C@@H](CCCNC(=N)N)C(=O)N[C@@H](C2CCCCC2)C(=O)N[C@@H]([C@@H](C)CC)C(=O)O[C@H]1C)[C@@H](C)CC)[C@@H](C)CC | 0.063 (≈ 0.048 µM) | 0.25 (≈ 0.19 µM) | 0.5 (≈ 0.381 µM) | 0.063 (≈ 0.048 µM) | 0.5 (≈ 0.381 µM) | 0.5 (≈ 0.381 µM) | 0.063 (≈ 0.048 µM) | 0.125 (≈ 0.0952 µM) | < 0.063 | 0.25 (≈ 0.19 µM) | 0.063 (≈ 0.048 µM) | 1 (≈ 0.762 µM) | 0.063 (≈ 0.048 µM) | 0.063 (≈ 0.048 µM) | 0.125 (≈ 0.0952 µM) | 0.063 (≈ 0.048 µM)
4 | CC[C@H](C)[C@H](NC(=O)[C@@H](Cc1ccccc1)NC)C(=O)N[C@@H](CO)C(=O)N[C@H](CCCNC(=N)N)C(=O)N[C@@H](C(=O)N[C@H](C(=O)N[C@@H](CO)C(=O)N[C@H]1C(=O)N[C@@H](CCCNC(=N)N)C(=O)N[C@@H](C2CCCCC2)C(=O)N[C@@H]([C@@H](C)CC)C(=O)O[C@H]1C)[C@@H](C)CC)[C@@H](C)CC | 0.125 (≈ 0.0932 µM) | 1 (≈ 0.746 µM) | 0.5 (≈ 0.373 µM) | 0.5 (≈ 0.373 µM) | 1 (≈ 0.746 µM) | 0.25 (≈ 0.186 µM) | 0.063 (≈ 0.047 µM) | 0.063 (≈ 0.047 µM) | < 0.063 | 1 (≈ 0.746 µM) | 0.5 (≈ 0.373 µM) | 1 (≈ 0.746 µM) | 0.063 (≈ 0.047 µM) | 0.125 (≈ 0.0932 µM) | 0.5 (≈ 0.373 µM) | 0.063 (≈ 0.047 µM)
5 | COc1c(N2C[C@@H]3CCCN[C@@H]3C2)c(F)cc2c(=O)c(C(=O)O)cn(C3CC3)c12 [MOXIFLOXACIN] | 0.25 (≈ 0.623 µM) | 16 (≈ 39.9 µM) | 4 (≈ 9.96 µM) | 0.125 (≈ 0.311 µM) | 0.25 (≈ 0.623 µM) | 4 (≈ 9.96 µM) | 0.063 (≈ 0.157 µM) | 0.25 (≈ 0.623 µM) | 0.25 (≈ 0.623 µM) | 0.125 (≈ 0.311 µM) | 0.063 (≈ 0.157 µM) | 0.25 (≈ 0.623 µM) | 0.125 (≈ 0.311 µM) | 4 (≈ 9.96 µM) | 4 (≈ 9.96 µM) | 0.031 (≈ 0.0772 µM)
6 | CCCCCCCCCC(=O)N[C@@H](Cc1c[nH]c2ccccc12)C(=O)N[C@H](CC(N)=O)C(=O)N[C@@H](CC(=O)O)C(=O)N[C@@H]1C(=O)NCC(=O)N[C@@H](CCCN)C(=O)N[C@@H](CC(=O)O)C(=O)N[C@H](C)C(=O)N[C@@H](CC(=O)O)C(=O)NCC(=O)N[C@H](CO)C(=O)N[C@@H]([C@H](C)CC(=O)O)C(=O)N[C@@H](CC(=O)c2ccccc2N)C(=O)O[C@@H]1C | 0.125 (≈ 0.0771 µM) | 2 (≈ 1.23 µM) | 2 (≈ 1.23 µM) | 0.25 (≈ 0.154 µM) | 1 (≈ 0.617 µM) | 0.5 (≈ 0.309 µM) | 0.125 (≈ 0.0771 µM) | 0.125 (≈ 0.0771 µM) | 0.125 (≈ 0.0771 µM) | 0.125 (≈ 0.0771 µM) | 0.25 (≈ 0.154 µM) | 1 (≈ 0.617 µM) | 0.125 (≈ 0.0771 µM) | 1 (≈ 0.617 µM) | 2 (≈ 1.23 µM) | 0.125 (≈ 0.0771 µM)
7 | CC[C@H](C)[C@H](NC(=O)[C@@H](Cc1ccccc1)NC)C(=O)N[C@@H](CCCNC(=N)N)C(=O)N[C@H](CCC(N)=O)C(=O)N[C@@H](C(=O)N[C@H](C(=O)N[C@@H](CO)C(=O)N[C@H]1C(=O)N[C@@H](CCCNC(=N)N)C(=O)N[C@@H](C2CCCCC2)C(=O)N[C@@H]([C@@H](C)CC)C(=O)O[C@H]1C)[C@@H](C)CC)[C@@H](C)CC | < 0.063 | 1 (≈ 0.724 µM) | 0.5 (≈ 0.362 µM) | 0.063 (≈ 0.0456 µM) | 1 (≈ 0.724 µM) | 0.5 (≈ 0.362 µM) | 0.063 (≈ 0.0456 µM) | 0.063 (≈ 0.0456 µM) | < 0.063 | 1 (≈ 0.724 µM) | 0.25 (≈ 0.181 µM) | 1 (≈ 0.724 µM) | 0.063 (≈ 0.0456 µM) | 0.063 (≈ 0.0456 µM) | 0.5 (≈ 0.362 µM) | 0.063 (≈ 0.0456 µM)
8 | CCC[C@@H]1NC(=O)[C@H](C)NC(=O)[C@H](NC(=O)[C@H](CO)NC(=O)[C@@H](NC(=O)[C@H](NC(=O)[C@@H](CCC(N)=O)NC(=O)[C@H](CO)NC(=O)[C@@H](NC(=O)[C@@H](Cc2ccccc2)NC)[C@@H](C)CC)[C@@H](C)CC)[C@@H](C)CC)[C@H](C)OC(=O)[C@H]([C@@H](C)CC)NC1=O | 0.063 (≈ 0.0531 µM) | 1 (≈ 0.842 µM) | 0.5 (≈ 0.421 µM) | 0.063 (≈ 0.0531 µM) | 1 (≈ 0.842 µM) | 0.125 (≈ 0.105 µM) | 0.125 (≈ 0.105 µM) | 0.063 (≈ 0.0531 µM) | 0.063 (≈ 0.0531 µM) | 0.063 (≈ 0.0531 µM) | 0.125 (≈ 0.105 µM) | 1 (≈ 0.842 µM) | 0.063 (≈ 0.0531 µM) | 0.063 (≈ 0.0531 µM) | 0.25 (≈ 0.211 µM) | 0.063 (≈ 0.0531 µM)
9 | CCC[C@@H]1NC(=O)[C@H](CCCNC(=N)N)NC(=O)[C@H](NC(=O)[C@H](CO)NC(=O)[C@@H](NC(=O)[C@H](NC(=O)[C@@H](CCC(N)=O)NC(=O)[C@H](CO)NC(=O)[C@@H](NC(=O)[C@@H](Cc2ccccc2)NC)[C@@H](C)CC)[C@@H](C)CC)[C@@H](C)CC)[C@H](C)OC(=O)[C@H]([C@@H](C)CC)NC1=O | 0.063 (≈ 0.0495 µM) | 2 (≈ 1.57 µM) | 0.5 (≈ 0.393 µM) | 0.25 (≈ 0.196 µM) | 1 (≈ 0.786 µM) | 0.25 (≈ 0.196 µM) | 0.063 (≈ 0.0495 µM) | 0.063 (≈ 0.0495 µM) | 0.063 (≈ 0.0495 µM) | 0.5 (≈ 0.393 µM) | 0.5 (≈ 0.393 µM) | 2 (≈ 1.57 µM) | 0.063 (≈ 0.0495 µM) | 0.063 (≈ 0.0495 µM) | 1 (≈ 0.786 µM) | 0.063 (≈ 0.0495 µM)
10 | CCC[C@@H]1NC(=O)[C@H](C)NC(=O)[C@H](NC(=O)[C@H](CO)NC(=O)[C@@H](NC(=O)[C@H](NC(=O)[C@@H](CCC(N)=O)NC(=O)[C@H](CCCNC(=N)N)NC(=O)[C@@H](NC(=O)[C@@H](Cc2ccccc2)NC)[C@@H](C)CC)[C@@H](C)CC)[C@@H](C)CC)[C@H](C)OC(=O)[C@H]([C@@H](C)CC)NC1=O | 0.063 (≈ 0.0501 µM) | 1 (≈ 0.796 µM) | 0.25 (≈ 0.199 µM) | 0.063 (≈ 0.0501 µM) | 1 (≈ 0.796 µM) | 0.063 (≈ 0.0501 µM) | 0.063 (≈ 0.0501 µM) | 0.063 (≈ 0.0501 µM) | 0.063 (≈ 0.0501 µM) | 0.063 (≈ 0.0501 µM) | 0.125 (≈ 0.0995 µM) | 2 (≈ 1.59 µM) | 0.063 (≈ 0.0501 µM) | 0.063 (≈ 0.0501 µM) | 0.125 (≈ 0.0995 µM) | 0.063 (≈ 0.0501 µM)
